# System: MCF-7 cells
# Experiment: MTT cell viability assay
# Assay type: cell-based
# Conditions: Homo sapiens, MCF7, cell viability data, read-out: IC50 for MTT
# Description: Cell viability analysis. The effect of individual test agents on cell viability was assessed by using the MTT [3-(4,5-dimethylthiazol-2-yl)-2,5-diphenyl-2H-tetrazolium bromide] assay in six replicates. Cells were seeded and incubated in 96-well, flat-bottomed plates in DMEM-F12 media with 10% FBS for 24 h, and were exposed to various concentrations of test agents dissolved in DMSO (final DMSO concentration, 0.1%) in 5% FBS-supplemented DMEM-F12 medium. Controls received DMSO vehicle at a concentration equal to that of drug-treated cells. The medium was removed, replaced by 200 μl of 0.5 mg/ml of MTT in 10% FBS-containing RPMI-1640 medium, and cells were incubated in the CO2 incubator at 37° C. for 2 h. Supernatants were removed from the wells, and the reduced MTT dye was solubilized in 200 μl/well DMSO. Absorbance at 570 nm was determined on a plate reader.
row,Structure (SMILES),IC50 [µM]
1,C=CCOc1c(C)c(C)c2c(c1C)CCC(C)(COc1ccc(/C=C3\SC(=S)NC3=O)cc1)O2 (stereo not drawn) [TG-3],11
2,C=CCOc1c(C)c(C)c2c(c1C)CCC(C)(COc1ccc(/C=C3\SC(=O)N(CC(=O)OC)C3=O)cc1)O2 (stereo not drawn) [TG-9],> 50
3,Cc1c(C)c2c(c(C)c1OC/C=C/c1ccccc1)CCC(C)(COc1ccc(/C=C3\SC(=O)NC3=O)cc1)O2 (stereo not drawn) [TG-10],19
4,Cc1c(C)c2c(c(C)c1OC/C=C/c1ccccc1)CCC(C)(COc1ccc(/C=C3\SC(=O)NC3=O)cc1Br)O2 (stereo not drawn) [TG-11],28.5
5,Cc1c(C)c2c(c(C)c1OCc1ccccc1)CCC(C)(COc1ccc(/C=C3\SC(=O)NC3=O)cc1)O2 (stereo not drawn) [TG-12],16.7
6,Cc1c(C)c2c(c(C)c1OC(=O)CCC(=O)O)CCC(C)(COc1ccc(/C=C3\SC(=O)NC3=O)cc1)O2 (stereo not drawn) [TG-13],> 50
7,CC(C)=CCOc1c(C)c(C)c2c(c1C)CCC(C)(COc1ccc(/C=C3\SC(=O)NC3=O)cc1)O2 (stereo not drawn) [TG-14],14.5
8,O=C1NC(=O)/C(=C/c2ccc(OCC3CCc4ccccc4C3)cc2)S1 (stereo not drawn) [TG-15],37
9,COc1cc(/C=C2\SC(=O)NC2=O)ccc1OCC1(C)CCc2c(C)c(OCC=C(C)C)c(C)c(C)c2O1 (stereo not drawn) [TG-16],15
10,CC(C)=CCOc1c(C)c(C)c2c(c1C)CCC(C)(COc1ccc(/C=C3\SC(=O)NC3=O)cc1C)O2 (stereo not drawn) [TG-17],14.5
11,C=CCOc1c(C)c(C)c2c(c1C)CCC(C)(COc1ccc(/C=C3\SC(=O)NC3=O)cc1Br)O2 (stereo not drawn) [TG-27],28
12,C=CCOc1c(C)c(C)c2c(c1C)CCC(C)(COc1ccc(/C=C3\SC(=O)NC3=O)cc1OC)O2 (stereo not drawn) [TG-28],14.5
13,C=CCOc1c(C)c(C)c2c(c1C)CCC(C)(COc1ccc(/C=C3\SC(=O)NC3=O)cc1C)O2 (stereo not drawn) [TG-29],23.5
14,CC(C)=CCOc1c(C)c(C)c2c(c1C)CCC(C)(COc1ccc(/C=C3\SC(=O)NC3=O)cc1F)O2 (stereo not drawn) [TG-30],12.5
15,CC(C)=CCOc1c(C)c(C)c2c(c1C)CCC(C)(COc1ccc(/C=C3\SC(=O)NC3=O)cc1-c1ccc(C(F)(F)F)cc1)O2 (stereo not drawn) [TG-31],> 50
16,CC(C)=CCOc1c(C)c(C)c2c(c1C)CCC(C)(COc1ccc(/C=C3\SC(=O)NC3=O)cc1-c1ccc(F)cc1)O2 (stereo not drawn) [TG-32],19.5
17,CCc1ccc(-c2cc(/C=C3\SC(=O)NC3=O)ccc2OCC2(C)CCc3c(C)c(OCC=C(C)C)c(C)c(C)c3O2)cc1 (stereo not drawn) [TG-33],> 50
18,CC(C)=CCOc1c(C)c(C)c2c(c1C)CCC(C)(COc1c(Br)cc(/C=C3\SC(=O)NC3=O)cc1Br)O2 (stereo not drawn) [TG-34],15.5
19,CC(C)=CCOc1c(C)c(C)c2c(c1C)CCC(C)(COc1ccc(/C=C3\SC(=O)NC3=O)cc1[N+](=O)[O-])O2 (stereo not drawn) [TG-35],38
20,CC(C)=CCOc1c(C)c(C)c2c(c1C)CCC(C)(COc1ccc(C=C(C#N)C#N)cc1Br)O2 (stereo not drawn) [TG-36],> 50
21,CC(C)=CCOc1c(C)c(C)c2c(c1C)CCC(C)(COc1ccc(/C=C/C(=O)O)cc1Br)O2 (stereo not drawn) [TG-37],34

# System: cyclin D1
# Experiment: Western blot analysis of cyclin D1 expression in MCF-7 cells
# Assay type: cell-based, human
# Conditions: western blot data, read-out: IC50 for WB
# Description: Western Blot Analysis. MCF-7 or MDA-MB-231 cells were seeded in 10% FBS-containing DMEM-F-12 for 24 h and treated with various agents as indicated. After individual treatments for 24 h, both the incubation medium and adherent cells in T-25 or T-75 flasks were scraped and collected by centrifugation at 2,000×g for 10 min. The pellets were recovered, placed on ice, and triturated with 20 to 50 μl of a chilled lysis buffer (M-PER® Mammalian Protein Extraction Reagent, Pierce, Rockford, Ill.) to which was added 1% protease inhibitor cocktail (set III, EMD Biosciences, Inc. San Diego, Calif.). After a 30 min-incubation on ice, the mixture was centrifuge at 16,100×g for 3 min. Two μl of the suspension was taken for protein analysis using the Bradford assay kit (Bio-Rad, Hercules, Calif.). To the remaining solution was added the same volume of 2× SDS-PAGE sample loading buffer (100 mM Tris-HCl, pH 6.8, 4% SDS, 5% β-mercaptoethanol 20% glycerol, and 0.1% bromophenol blue). The mixture was boiled for 10 min. Equal amounts of proteins were loaded onto 10% SDS-PAGE gels. After electrophoresis, protein bands were transferred to nitrocellulose membranes in a semi-dry transfer cell. The transblotted membrane was blocking with TBST [Tris-buffered saline (TBS) containing 0.1% Tween 20] containing 5% nonfat milk for 90 min, and the membrane was incubated with the appropriate primary antibody in TBST-5% nonfat milk at 4° C. overnight. After washing three times with TBST for a total of 45 min, the transblotted membrane was incubated with goat anti-rabbit or anti-mouse IgG-horseradish peroxidase conjugates (diluted 1:1000) for 1 h at room temperature and washed four times with TBST for a total of 1 h. The immunoblots were visualized by enhanced chemiluminescence.
row,Structure (SMILES),IC50 [µM]
1,C=CCOc1c(C)c(C)c2c(c1C)CCC(C)(COc1ccc(/C=C3\SC(=S)NC3=O)cc1)O2 (stereo not drawn) [TG-3],3.5
2,C=CCOc1c(C)c(C)c2c(c1C)CCC(C)(COc1ccc(/C=C3\SC(=O)N(CC(=O)OC)C3=O)cc1)O2 (stereo not drawn) [TG-9],> 7.5
3,Cc1c(C)c2c(c(C)c1OC/C=C/c1ccccc1)CCC(C)(COc1ccc(/C=C3\SC(=O)NC3=O)cc1)O2 (stereo not drawn) [TG-10],> 7.5
4,Cc1c(C)c2c(c(C)c1OC/C=C/c1ccccc1)CCC(C)(COc1ccc(/C=C3\SC(=O)NC3=O)cc1Br)O2 (stereo not drawn) [TG-11],> 7.5
5,Cc1c(C)c2c(c(C)c1OC(=O)CCC(=O)O)CCC(C)(COc1ccc(/C=C3\SC(=O)NC3=O)cc1)O2 (stereo not drawn) [TG-13],> 7.5
6,CC(C)=CCOc1c(C)c(C)c2c(c1C)CCC(C)(COc1ccc(/C=C3\SC(=O)NC3=O)cc1)O2 (stereo not drawn) [TG-14],7
7,C=CCOc1c(C)c(C)c2c(c1C)CCC(C)(COc1ccc(/C=C3\SC(=O)NC3=O)cc1Br)O2 (stereo not drawn) [TG-27],> 7.5
8,CC(C)=CCOc1c(C)c(C)c2c(c1C)CCC(C)(COc1ccc(/C=C3\SC(=O)NC3=O)cc1-c1ccc(C(F)(F)F)cc1)O2 (stereo not drawn) [TG-31],> 7.5
9,CC(C)=CCOc1c(C)c(C)c2c(c1C)CCC(C)(COc1ccc(/C=C3\SC(=O)NC3=O)cc1-c1ccc(F)cc1)O2 (stereo not drawn) [TG-32],> 7.5
10,CCc1ccc(-c2cc(/C=C3\SC(=O)NC3=O)ccc2OCC2(C)CCc3c(C)c(OCC=C(C)C)c(C)c(C)c3O2)cc1 (stereo not drawn) [TG-33],> 7.5
11,CC(C)=CCOc1c(C)c(C)c2c(c1C)CCC(C)(COc1ccc(C=C(C#N)C#N)cc1Br)O2 (stereo not drawn) [TG-36],> 7.5
12,CC(C)=CCOc1c(C)c(C)c2c(c1C)CCC(C)(COc1ccc(/C=C/C(=O)O)cc1Br)O2 (stereo not drawn) [TG-37],> 7.5
